Experimental findings from patent US20110105472A1, “Diaminopyrimidines as crop protection agents” (Bayer CropScience AG, priority 2008, published 2011) are described below.

Marks after values point to notes of the source that are not given here.

Test system in the first data set: not listed separately
As to the kind of experiment: logP by LC-MS, method [b], acidic range pH 2.7. It counts as physicochemical. The note with it: pH 2.7.
`CS(=O)(=O)Nc1cccc(Nc2ncc(Br)c(NC3CCC3)n2)c1` [Compound 87]: the log p was 1.73[b]. Still for that read-out and setting: with `CC(C)Oc1ccc(Nc2ncc(Cl)c(NC3CCC3)n2)cc1.Cl` [Compound 36, 5-Chloro-N^4-cyclobutyl-N^2-(4-isopropoxyphenyl)pyrimidine-2,4-diamine hydrochloride] the figure was 2.44[b]; with `CC(=O)Nc1cccc(Nc2ncc(Cl)c(NC3CCC3)n2)c1` [Compound 123], 1.51[b].

For a further data set, the system named is Stellaria media (common chickweed). The experiment in a line: Herbicidal post-emergence action (PO), STEME. The note with it: dose 1000 g/ha, rated visually after about 2 weeks. Format: in vivo. On the procedure:
(§1) 2. Herbicidal Post-Emergence Action (═PO)
(§2) Seeds of monocotyledonous and dicotyledonous harmful plants are placed in sandy loam, covered with soil and cultivated in a greenhouse under good growth conditions. About 2 weeks after sowing, the test plants are treated at the one-leaf stage. To this end, the compounds according to the invention, formulated as emulsion concentrates (EC), as an aqueous emulsion with a water application rate of 800 l/ha (converted), are sprayed onto the green parts of the plants. After the test plants have been kept in the greenhouse under optimum growth conditions for about 2 weeks, the effect of the preparations is rated visually in comparison to untreated controls (herbicidal effect in percent (%): 100% effect=the plants have died, 0% effect=like control plants). CAPBP=Capsella bursa-pastoris (shepherd's purse), STEME=Stellaria media (common chickweed), ABUTH=Abutilon theophrasti (velvetleaf), AMARE=Amaranthus retroflexus (redroot pigweed)
`CS(=O)(=O)Nc1cccc(Nc2ncc(Br)c(NC3CCC3)n2)c1` [Compound 87]: the “herbicidal effect STEME” value was found to be 70%. For `CC(=O)Nc1cccc(Nc2ncc(Cl)c(NC3CCC3)n2)c1` [Compound 123], the “herbicidal effect STEME” value amounted to 70%.

Test system in a further data set: not listed separately
The experiment in a line: physchem. It counts as physicochemical. The following applies: pH 7.8.
In the case of `CCSc1cccc(Nc2ncc(C(F)(F)F)c(NC3CCC3)n2)c1` [Compound 235], the log p was 4.8[c]. On the same count and under the same terms, with `Fc1ccc(Nc2ncc(Cl)c(NC3CCC3)n2)cc1` [Compound 47] the figure was 3.7[c]; with `CS(=O)(=O)c1cccc(Nc2ncc(Cl)c(NC3CCC3)n2)c1` [Compound 263], 2.63[c]; with `O=C1CCCN1c1cccc(Nc2ncc(C(F)(F)F)c(NC3CCC3)n2)c1` [Compound 55], 3.09[c]. Broadly, the chromatographic logP is a lipophilicity value derived from retention on a column. A low value points to lower lipophilicity. Consider `FC(F)(F)c1cnc(Nc2ccccc2)nc1NC1CCC1` [Compound 54, N^4-Cyclobutyl-N^2-phenyl-5-(trifluoromethyl)pyrimidine-2,4-diamine], for which the chromatographic logP was found to be 3.96. `Fc1ccc(Nc2ncc(C(F)(F)F)c(NC3CCC3)n2)cc1` [Compound 58]: the log p was 4[c]. Take `O=C1CCCN1c1ccc(Nc2ncc(C(F)(F)F)c(NC3CCC3)n2)cc1` [Compound 56]: the log p was 3.01[c]. For the compound `CC(C#N)c1ccc(Nc2ncc(Cl)c(NC3CCC3)n2)cc1` (stereo not drawn) [Compound 234], the log p is 3.45[c].

With `CSc1cccc(Nc2ncc(C(F)(F)F)c(NC3CCC3)n2)c1` [Compound 57], the log p is 4.36[c].

For `CC1CC(C)CN(c2cccc(Nc3ncc(Cl)c(NC4CCC4)n3)c2)C1` (stereo not drawn) [Compound 51], the log p is 5.82[c]. The same measure, in the same setting: with `O=C1CCCN1c1cc(Nc2ncc(C(F)(F)F)c(NC3CCC3)n2)ccc1F` [Compound 211] the figure was 2.96[c]. Turning to `O=C(c1cccc(Nc2ncc(Cl)c(NC3CCC3)n2)c1)N1CCOCC1` [Compound 262], the log p was 2.39[c].

`O=C1CCCN1c1cccc(Nc2ncc(Cl)c(NC3CCC3)n2)c1` [Compound 48]: the log p was 2.74[c]. Consider `CCN(CC)C(=O)c1ccc(Nc2ncc(Cl)c(NC3CCC3)n2)cc1` [Compound 250], for which the log p is 3.19[c].

`CC(=O)N(C)c1cccc(Nc2ncc(Cl)c(NC3CCC3)n2)c1` [Compound 261]: the log p was 2.49[c]. Still for that read-out and setting: the value for `CC(C)NC(=O)c1ccc(Nc2ncc(Cl)c(NC3CCC3)n2)cc1` [Compound 248] was 2.68[c].

A further data set deals with Amaranthus retroflexus (redroot pigweed). As to the kind of experiment: Herbicidal post-emergence action (PO), AMARE. It counts as in vivo. The following applies: dose 1000 g/ha, rated visually after about 2 weeks. On the procedure: as §1, §2
Regarding `O=C1CCCN1c1cccc(Nc2ncc(Cl)c(NC3CCC3)n2)c1` [Compound 48], the “herbicidal effect AMARE” value is 70%.

As to `CS(=O)(=O)Nc1cccc(Nc2ncc(Br)c(NC3CCC3)n2)c1` [Compound 87], the “herbicidal effect AMARE” value came out at 80%. Same read-out and setting: the value for `CC(=O)Nc1cccc(Nc2ncc(Cl)c(NC3CCC3)n2)c1` [Compound 123] was 100%.

In the next data set the test system is Capsella bursa-pastoris (shepherd's purse). The experiment in a line: Herbicidal post-emergence action (PO), CAPBP. Format: in vivo. The note with it: dose 1000 g/ha, rated visually after about 2 weeks. On the procedure: as §1, §2
As to `O=C1CCCN1c1cccc(Nc2ncc(Cl)c(NC3CCC3)n2)c1` [Compound 48], the “herbicidal effect CAPBP” value amounted to 70%. Same read-out and setting: the value for `CC(=O)Nc1cccc(Nc2ncc(Cl)c(NC3CCC3)n2)c1` [Compound 123] was 80%.

Test system in a further data set: not listed separately
As to the kind of experiment: logP by HPLC on reversed-phase columns (C 18), method [a], acidic range pH 2.3. The note with it: pH 2.3. It counts as physicochemical.
For `Fc1ccc(Nc2ncc(Cl)c(NC3CCC3)n2)cc1` [Compound 47], the log p is 2.15[a];.

As to `O=C1CCCN1c1cccc(Nc2ncc(C(F)(F)F)c(NC3CCC3)n2)c1` [Compound 55], the log p is 2.64[a];.

As for `FC(F)(F)c1cnc(Nc2ccccc2)nc1NC1CCC1` [Compound 54, N^4-Cyclobutyl-N^2-phenyl-5-(trifluoromethyl)pyrimidine-2,4-diamine], the chromatographic logP stood at 3.33. As for `Fc1ccc(Nc2ncc(C(F)(F)F)c(NC3CCC3)n2)cc1` [Compound 58], the log p is 3.5[a];. Same read-out and setting: with `O=C1CCCN1c1ccc(Nc2ncc(C(F)(F)F)c(NC3CCC3)n2)cc1` [Compound 56] the figure was 2.51[a];. Same read-out and setting: with `CSc1cccc(Nc2ncc(C(F)(F)F)c(NC3CCC3)n2)c1` [Compound 57] the figure was 4.05[a];. The same measure, in the same setting: the value for `CC1CC(C)CN(c2cccc(Nc3ncc(Cl)c(NC4CCC4)n3)c2)C1` (stereo not drawn) [Compound 51] was 2.94[a];; that for `O=C1CCCN1c1cc(Nc2ncc(C(F)(F)F)c(NC3CCC3)n2)ccc1F` [Compound 211] was 2.69[a];. Consider `O=C1CCCN1c1cccc(Nc2ncc(Cl)c(NC3CCC3)n2)c1` [Compound 48], for which the log p was 1.71[a];. Turning to `CC(C)Oc1ccc(Nc2ncc(Cl)c(NC3CCC3)n2)cc1.Cl` [Compound 36, 5-Chloro-N^4-cyclobutyl-N^2-(4-isopropoxyphenyl)pyrimidine-2,4-diamine hydrochloride], the chromatographic logP was found to be 2.21.
